Results as given in ChEMBL document CHEMBL1141732, “Croton ruizianus: platelet proaggregating activity of two new pregnane glycosides” (J Nat Prod, 1998).

How the values were obtained:
[1] = system: Platelet; test: Induction of human washed-platelet aggregation at 232 ug/test tube after 1 min by light transmission aggregometer; assay type: functional
[2] = system: Platelet; test: Induction of human washed-platelet aggregation at 232 ug/test tube after 4 mins by light transmission aggregometer; assay type: functional
[3] = system: Platelet; test: Induction of human washed-platelet aggregation at 20 ug/test tube after 4 mins by light transmission aggregometer; assay type: functional
[4] = system: Platelet; test: Induction of human washed-platelet aggregation at 20 ug/test tube after 1 min by light transmission aggregometer; assay type: functional
[5] = Cytotoxicity against human washed-platelet assessed as LDH release after 5 mins by sonication method; assay type: cell-based
[6] = system: Platelet; test: Induction of human washed-platelet aggregation at 273 ug/test tube after 4 mins by light transmission aggregometer; assay type: functional
[7] = system: Platelet; test: Induction of human washed-platelet aggregation at 273 ug/test tube after 1 min by light transmission aggregometer; assay type: functional
[8] = system: Platelet; test: Induction of human washed-platelet aggregation at 82 ug/test tube after 1 min by light transmission aggregometer; assay type: functional
[9] = system: Platelet; test: Induction of human washed-platelet aggregation at 82 ug/test tube after 4 mins by light transmission aggregometer; assay type: functional
[10] = system: Platelet; test: Induction of human washed-platelet aggregation at 85 ug/test tube after 1 min by light transmission aggregometer; assay type: functional
[11] = system: Platelet; test: Induction of human washed-platelet aggregation at 85 ug/test tube after 4 mins by light transmission aggregometer; assay type: functional

Row | SMILES | Activity [1] [%] | Activity [2] [%] | Activity [3] [%] | Activity [4] [%] | Activity [5] | Activity [6] [%] | Activity [7] [%] | Activity [8] [%] | Activity [9] [%] | Activity [10] [%] | Activity [11] [%]
1 | CO[C@@H]1[C@@H](O)[C@H](O[C@H]2CC[C@@]3(C)[C@@H](CC[C@@H]4[C@@H]3CC[C@]3(C)[C@@H](C(C)=O)[C@H](O)[C@@H](O)[C@]43O)C2)O[C@H](C)[C@H]1O[C@@H]1C[C@@H](O)[C@@H](O[C@@H]2C[C@H](OC)[C@@H](O[C@H]3C[C@@H](OC)[C@H](O)[C@@H](C)O3)[C@H](C)O2)[C@H](C)O1 | 18.3 | 54.5 | 12.5 | 12.5 | <= 3.8% | – | – | – | – | – | –
2 | CO[C@@H]1[C@@H](O)[C@H](O[C@H]2CC[C@@]3(C)[C@@H](CC[C@@H]4[C@@H]3CC[C@]3(C)[C@@H](C(C)=O)[C@H](O)[C@@H](O)[C@]43O)C2)O[C@H](C)[C@H]1O[C@@H]1C[C@@H](O)[C@@H](O[C@@H]2C[C@H](OC)[C@@H](O[C@H]3C[C@@H](OC)[C@H](O[C@@H]4O[C@H](CO)[C@@H](O)[C@H](O)[C@H]4O)[C@@H](C)O3)[C@H](C)O2)[C@H](C)O1 | – | – | 9.4 | 5.3 | <= 3.8% | 42.3 | 14.1 | – | – | – | –
3 | COC1=C[C@]23CCN(C)[C@H](Cc4cc(OC)c(O)cc42)C3=CC1=O [FLAVINANTINE] | – | – | 3.5 | 2.1 | <= 3.8% | – | – | 6.3 | 17.5 | – | –
4 | COC1=C[C@]23CCN(C)[C@H](Cc4cc(OC)c(OC)cc42)C3=CC1=O [O-METHYLFLAVINANTINE] | – | – | 0 | 0 | <= 3.8% | – | – | – | – | 3.1 | 8.8
